Reference: patent US9714245B2, “Carboline compounds usable in the treatment of neurodegenerative diseases” (ALZPROTECT, priority 2013, dated 2017)
pIC50: −log10 of the molar value.

Legend:
secreted Aβ1-40 = experiment: Aβ1-40 secretion by APP-transfected neuroblastoma cells (ELISA); type: cell-based; conditions: Homo sapiens, Neuroblastoma cell; SKNSH-SYSY APPWT cells; concentration decreasing secreted Aβ1-40 to 50% of basal amount
Experimental: (§1) Cell Cultures and Transfections to Test Activity on Aβ1-40 and Aβ1-42 Secretion
(§2) Human neuroblastoma cell line SKNSH-SYSY (ATCC® Catalog No. CRL-2266™), HEK (ATCC® CRL-1573™) and COS-1 (ATCC® CRL-1650™) cells were maintained in Dulbecco's modified Eagle medium (DMEM, GIBCO BRL) supplemented with 10% fetal calf serum, 2 mM L-glutamine, 1 mM non-essential amino acids, 50 units/ml penicillin/streptomycin (Invitrogen, France) in a 5% CO2 humidified incubator at 37° C. APP695 cDNA was subcloned into eukaryotic expression vector pcDNA3 (Invitrogen), allowing for a G418 (Invitrogen) selection of clones. This APP cDNA coding for the 695 amino acid long isoform was transfected into SKNSH-SYSY cells using the ethyleneimine polymer ExGen 500 (Euromedex) according to the manufacturer's instructions. The cells expressing APP (SKNSH-SYSY APP^WT) were selected by the addition of 200 μg/ml G418 in the cell medium. To quantify AR which released in the cell culture medium, the collected medium was spun at 200×g to eliminate the cell debris. The concentrations of secreted Aâ1-40 and Aβ1-42 were determined using the Human Aβ (1-40) Assay Kit (IBL) or the INNOTEST™ beta-Amyloid (1-42) ELISA Kit (Innogenetics), according to manufacturer's instructions. The results were expressed as IC50, i.e. the concentration able to decrease to 50% the basal amount of secreted Aβ peptide 1-40 and 1-42.

secreted Aβ1-42 = experiment: Aβ1-42 secretion by APP-transfected neuroblastoma cells (ELISA); type: cell-based; conditions: Homo sapiens, Neuroblastoma cell; SKNSH-SYSY APPWT cells; concentration decreasing secreted Aβ1-42 to 50% of basal amount
Experimental: as §1, §2

AICD = experiment: Quantification of AICD by Western blot in SY5Y-APPWT cells; type: cell-based, Human; conditions: compared to a control with a value of 100
Experimental: Quantifications of APP-CTFs and AICD
After treatment, SY5Y-APP^WT cells were scrapped and lysed in 1× Lysis Buffer (250 mM NaCl, 50 mM Tris, pH 8.8, 5 mM EDTA, 2.5% Triton X-100, 1% Deoxycholate, 0.1% SDS). For the Western blotting, an equal amount of total proteins (20 μg/lane) was loaded on a 16.5% Tris-Tricine or 8-16% Tris-Glycine polyacrylamide gel.
SDS-polyacrylamide gel electrophoresis (PAGE) was performed using the Criterion™ Tris-Tricine-precast or Bis-Tris-precast criterion gels (Bio-Rad Bioresearch division). Proteins were transferred to a […] nitrocellulose membrane (Hybond, Amersham Biosciences) at 2.5 mA/cm2 per gel using the Criterion™ Blotter system (Amersham Biosciences), according to the manufacturer's instructions. Proteins were reversibly stained with Ponceau Red in order to check the quality of the transfer of protein. The membranes were blocked in 25 mM Tris-HCl pH 8.0, 150 mM NaCl, 0.1% Tween-20 (v/v) and 5% (w/v) of skimmed milk for 30 min. Membranes were incubated overnight at 4° C. with appropriate dilution of the primary antibodies, and were incubated for 1 h at room temperature with secondary antibody. […] Quantifications were calculated with Image J software (NIH) and the data were collected using Excel Software (Microsoft). The loading variations between Western blot lanes were normalized according to the tubulin signal. Quantification of CTFα and AICD were compared to control conditions (considered as 100 in arbitrary units) and are presented for two concentrations of the drug: 1 and 10 μM.

[1] = Cytotoxicity evaluation (MTS assay); type: cell-based, Human; conditions: human, SY5Y-APPWT neuroblastoma cells (expressing APP); SY5Y-APPWT cells, 24 h treatment, MTS
Experimental: (§3) Human neuroblastoma cell line SY5Y-APP^WT was used to assess the cytotoxic effects of each compound. SY5Y-APP^WT cells were seeded at 20000 cells/well onto 96-well plates and were cultured in Dulbecco's modified Eagle medium (DMEM, Invitrogen) supplemented with 10% fetal calf serum (PAA), 2 mM L-glutamine (Invitrogen), 1 mM non-essential amino acids (Invitrogen), 50 units/ml penicillin/streptomycin (Invitrogen), and 200 μg G418=geneticin (Invitrogen) (selection for cells expressing APP) in a 5% CO2 humidified incubator at 37° C. After 24 h, the cells were washed and incubated with the compound at 0.1; 0.3; 1; 3; 10; 30 and 100 μM or with DMSO as control diluted in the same culture medium at 37° C. in 5% CO2. After 24 h of treatment, cytotoxicity was determined by using colorimetric MTS assay (CellTiter 96® Aqueous One Solution Cell Proliferation Assay-MTS Promega) according to the protocol of the manufacturer. Absorbance was read at 490 nm and results were expressed as % from control condition considered as 100%.

SY5Y-APPWT cells = experiment: Cytotoxicity evaluation (MTS assay); type: cell-based, Human; conditions: comparative statement
Experimental: as §3

sAPPα = experiment: Soluble APPα quantification (ELISA); type: cell-based, Human; conditions: 24 h, control considered as 100
Experimental: Soluble APPα Quantification
Human neuroblastoma cell line SKNSH-SYSY APP′ was cultured in Dulbecco's modified Eagle medium (Invitrogen) supplemented with 10% fetal calf serum (PAA), 2 mM L-glutamine (Invitrogen), 1 mM non-essential amino acids (Invitrogen), 50 units/ml penicillin/streptomycin (Invitrogen), and 200 μg G418=geneticin (Invitrogen) (selection for cell expressing APP) in a 5% CO2 humidified incubator at 37° C. Cells were counted and seed at 400000 cells/well into a 12-wells plate for 24 h. The day after, cells were treated with 700 μL/well of drug at 0.3; 1; 3 and 10 μM and incubated for 24 h in a 5% CO2 incubator at 37° C. After treatment, culture medium samples were collected and stored at −80° C. until analysis. Samples corresponding to the 1 and 10 μM treatment were centrifuged 1500 rpm for 5 min at 4° C. sAPPα quantification by ELISA was done with Human sAPPα Assay Kit-IBL (Cat#27734) in accordance with manufacturer's protocol. Samples were diluted at 1:150 in the diluent buffer provided in the kit. Each sample was loaded in duplicate onto the 96 well-plate. Results are expressed in ng/ml and then compared to control conditions (considered as 100 in arbitrary units) and are presented for two concentrations of the drug: 1 and 10 μM.

CTFα = experiment: In vivo chronic treatment, CTFα in brain tissue; parameters: species or system C57Bl6 mice; conditions: 12 weeks in drinking water, 3 mg/kg
Experimental: In Vivo Chronic Treatment
Female C57Bl6 mice of 4 month-old were treated with either vehicle (control) or drug at 1 and 3 mg/kg (n=10 per group) for 12 weeks in drinking water. First of all, all mice were weighted and distributed in each cage in order to have approximately the same average of weight±SD per cage. Each concentration of product as well as vehicule was prepared in sterile bottles and the bottles were kept at room temperature protected from light. The drinking bottles were filled weekly and weighted. Volume consumed was calculated by weighting each bottle after each week and the remaining volume was discarded. After 12 weeks, mice were sacrificed and their troncal blood was collected and stored at 4° C. Brains were immediately removed to dissect the Frontal Cortex, the Cortex around the Hippocampus and the Hippocampus. These areas were stored at −80° C. until use. Blood was then centrifuged at 2100×g for 5 min. Resulting plasma was used to quantify the circulating drug and brain tissues were used for biochemical determinations (PFC: prefrontal cortex and HIP: hippocampus).

[2] = Metabolic stability (method not described); conditions: comparative statement

## Fc1ccc2[nH]c3c(c2c1)CN(CCCN1CCN(CCCN2CCCC2)CC1)CC3 [Compound 3.1f, 8-Fluoro-2-{3-[4-(3-(pyrrolidin-1-yl)propyl)piperazin-1-yl]propyl}-2,3,4,5-tetrahydro-1H-pyrido[4,3-b]indole]
Secreted Aβ1-40
  pIC50: 5.52
Secreted Aβ1-42
  pIC50: 6.00
AICD
  AICD (10 μM): 1011 arbitrary units
[1]
  CC50 at 24 h: > 100000 nM
SY5Y-APPWT cells
  toxicity (in words): less toxic
sAPPα
  sAPPα (10 μM): 100 arbitrary units
CTFα
  increase of CTFα in hippocampus (HIP): 25%
  increase of CTFα in prefrontal cortex (PFC): 20%
[2]
  metabolic stability (in words): metabolically more stable
